# Measured values reported in US10023534B2 (BRISTOL-MYERS SQUIBB COMPANY, priority 2014, dated 2018).
# Where two headings read alike, the source gives them in different places.
# Experiments:
# Ramos RA1 B cells = assay: Ramos FLIPR Assay (intracellular calcium flux, anti-human IgM stimulated); format: cell-based; settings: for Potency Difference Ramos: ratio of IC50 value for the Comparative Example to that for the corresponding Example: Comparative Example (stereoisomer) IC50 / Example IC50
# Description: Ramos FLIPR Assay […] Dye-loaded cells were pelleted (Beckmann GS-CKR, 1200 rpm, room temperature, 5 min) and resuspended at room temperature in RPMI minus phenol red with 50 mM HEPES and 10% FBS to a density of 1×10^6 cells/mL. 150 μL aliquots (150,000 cells/well) were plated into 96 well poly-D-lysine coated assay plates (BD 35 4640) and briefly centrifuged (Beckmann GS-CKR 800 rpm, 5 min, without brake). Next, 50 μL compound dilutions in 0.4% DMSO/RPMI minus phenol red+50 mM HEPES+10% FBS were added to the wells and the plate was incubated at room temperature in the dark for 1 hour. The assay plate was briefly centrifuged as above prior to measuring calcium levels. Using the […] (Molecular Devices), cells were stimulated by adding goat anti-human IgM (Invitrogen AHI0601) to 2.5 μg/mL. Changes in intracellular calcium concentrations were measured for 180 seconds and percent inhibition was determined relative to peak calcium levels seen in the presence of stimulation only. The Ramos assay measures the ability of a compound to move through the cell membrane into the cell interior. A lower IC50 value indicates a greater ability to move into the cell interior.
# human recombinant Btk = human recombinant Btk (Homo sapiens (Human), UniProt Q06187); assay: Human Recombinant Btk Enzyme Assay; format: biochemical; settings: for Potency Difference Btk: ratio of IC50 value for the Comparative Example to that for the corresponding Example: Comparative Example (stereoisomer) IC50 / Example IC50
# Description: Human Recombinant Btk Enzyme Assay
# To V-bottom 384-well plates were added test compounds, human recombinant Btk (1 nM, Invitrogen Corporation), fluoresceinated peptide (1.5 μM), ATP (20 μM), and assay buffer (20 mM HEPES pH 7.4, 10 mM MgCl2, 0.015% Brij 35 surfactant and 4 mM DTT in 1.6% DMSO), with a final volume of 30 μL. After incubating at room temperature for 60 min, the reaction was terminated by adding 45 μL of 35 mM EDTA to each sample. The reaction mixture was analyzed on the Caliper LABCHIP® 3000 (Caliper, Hopkinton, Mass.) by electrophoretic separation of the fluorescent substrate and phosphorylated product. […] Compounds were dissolved at 10 mM in DMSO and evaluated at eleven concentrations.
# [1] = Homo sapiens, Ramos, Table 4, read-out: Example Ramos IC50
# [2] = Ramos, Table 3, calcium flux, goat anti-human IgM 2.5 μg/mL, read-out: Ramos IC50 value
# [3] = Table 3, ATP 20 μM, 60 min room temperature, read-out: Btk IC50 value
# [4] = Table 4, read-out: Example Btk IC50
# [5] = Homo sapiens, Ramos, Table 3, calcium flux, goat anti-human IgM 2.5 μg/mL, read-out: Ramos IC50 value
# [6] = Homo sapiens, Ramos, Table 4, Comparative Example, read-out: Comparative Example Ramos IC50
# [7] = Table 4, Comparative Example, read-out: Comparative Example Btk IC50
# Sequence of human recombinant Btk (Q06187 whole entry): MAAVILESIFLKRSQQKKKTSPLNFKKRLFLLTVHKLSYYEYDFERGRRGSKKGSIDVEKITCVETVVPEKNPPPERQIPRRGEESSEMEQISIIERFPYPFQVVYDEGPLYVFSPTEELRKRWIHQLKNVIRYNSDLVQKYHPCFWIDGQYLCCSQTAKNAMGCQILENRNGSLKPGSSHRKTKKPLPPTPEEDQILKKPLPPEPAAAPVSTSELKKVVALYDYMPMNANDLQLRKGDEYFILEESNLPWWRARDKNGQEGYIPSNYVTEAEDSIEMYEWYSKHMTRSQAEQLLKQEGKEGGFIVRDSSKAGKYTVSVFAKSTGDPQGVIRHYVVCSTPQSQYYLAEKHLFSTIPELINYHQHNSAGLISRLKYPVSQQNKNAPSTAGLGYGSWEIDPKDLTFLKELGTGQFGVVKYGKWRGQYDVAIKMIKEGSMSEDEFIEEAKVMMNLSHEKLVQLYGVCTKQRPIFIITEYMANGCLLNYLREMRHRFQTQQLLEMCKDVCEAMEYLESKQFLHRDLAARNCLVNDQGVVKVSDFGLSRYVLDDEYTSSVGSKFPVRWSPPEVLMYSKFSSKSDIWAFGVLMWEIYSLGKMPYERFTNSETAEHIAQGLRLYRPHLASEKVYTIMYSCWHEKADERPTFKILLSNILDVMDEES
compound,measurement,setting,value
"C=CC(=O)N1CCc2c(cccc2-c2c(F)cc(C(N)=O)c3[nH]c4cc(C(F)(F)F)ccc4c23)C1 (single isomer, unassigned) [Example 7, 4-(2-Acryloyl-1,2,3,4-tetrahydroisoquinolin-5-yl)-3-fluoro-7-(trifluoromethyl)-9H-carbazole-1-carboxamide]",Potency Difference Ramos: ratio of IC50 value for the Comparative Example to that for the corresponding Example,Ramos RA1 B cells,>27
same,IC50,Ramos RA1 B cells; [1],11 nM
same,IC50,Ramos RA1 B cells; [2],10.7 nM
same,Potency Difference Btk: ratio of IC50 value for the Comparative Example to that for the corresponding Example,human recombinant Btk,78
same,IC50,human recombinant Btk; [3],0.18 nM
same,IC50,human recombinant Btk; [4],0.18 nM
"C=CC(=O)N1CCc2c(cccc2-c2c(Cl)cc(C(N)=O)c3[nH]c4ccccc4c23)C1 (single isomer, unassigned) [Example 24]",IC50,Ramos RA1 B cells; [5],3 nM
"C=CC(=O)N1CCc2c(cccc2-c2c(F)cc(C(N)=O)c3[nH]c4c(c23)CC[C@H](C(C)(C)O)C4)C1 (single isomer, unassigned) [Example 9]",IC50,Ramos RA1 B cells; [5],2.3 nM
same,IC50,Ramos RA1 B cells; [1],2.3 nM
"C=CC(=O)N1CCOc2c(-c3c(F)cc(C(N)=O)c4[nH]c5ccccc5c34)cccc21 (racemic) [Example 3, (RS)-4-(4-acryloyl-3,4-dihydro-2H-benzo[b][1,4]oxazin-8-yl)-3-fluoro-9H-carbazole-1-carboxamide]",IC50,Ramos RA1 B cells; [2],4.6 nM
same,IC50,human recombinant Btk; [3],0.075 nM
"C=CC(=O)N1CCc2c(cccc2-c2c(F)cc(C(N)=O)c3[nH]c4c(c23)CC(F)(F)CC4)C1 (single isomer, unassigned) [Example 6, 5-(2-Acryloyl-1,2,3,4-tetrahydroisoquinolin-5-yl)-3,3,6-trifluoro-2,3,4,9-tetrahydro-1H-carbazole-8-carboxamide]",Potency Difference Ramos: ratio of IC50 value for the Comparative Example to that for the corresponding Example,Ramos RA1 B cells,>13
same,IC50,Ramos RA1 B cells; [1],23 nM
same,IC50,Ramos RA1 B cells; [2],23 nM
same,Potency Difference Btk: ratio of IC50 value for the Comparative Example to that for the corresponding Example,human recombinant Btk,38
same,IC50,human recombinant Btk; [3],0.12 nM
same,IC50,human recombinant Btk; [4],0.12 nM
"C=CC(=O)N1CCc2c(cccc2-c2c(F)cc(C(N)=O)c3[nH]c4c(c23)CCC(C(F)(F)F)C4)C1 (single isomer, unassigned) [Example 10, 5-(2-Acryloyl-1,2,3,4-tetrahydroisoquinolin-5-yl)-6-fluoro-2-(trifluoromethyl)-2,3,4,9-tetrahydro-1H-carbazole-8-carboxamide]",IC50,Ramos RA1 B cells; [5],22.2 nM
same,IC50,Ramos RA1 B cells; [1],22 nM
"C=CC(=O)N1CCCOc2c(-c3c(F)cc(C(N)=O)c4[nH]c5cc(C(F)(F)F)ccc5c34)cccc21 (single isomer, unassigned) [Example 12, 4-(5-Acryloyl-2,3,4,5-tetrahydrobenzo[b][1,4]oxazepin-9-yl)-3-fluoro-7-(trifluoromethyl)-9H-carbazole-1-carboxamide]",Potency Difference Ramos: ratio of IC50 value for the Comparative Example to that for the corresponding Example,Ramos RA1 B cells,48
same,IC50,Ramos RA1 B cells; [1],6.2 nM
same,IC50,Ramos RA1 B cells; [2],6.2 nM
same,Potency Difference Btk: ratio of IC50 value for the Comparative Example to that for the corresponding Example,human recombinant Btk,26
same,IC50,human recombinant Btk; [3],0.37 nM
same,IC50,human recombinant Btk; [4],0.37 nM
"C=CC(=O)N1CCc2c(cccc2-c2c(F)cc(C(N)=O)c3[nH]c4c(c23)CCC(C(F)(F)F)C4)C1 (single isomer, unassigned) [Example 11, 5-(2-Acryloyl-1,2,3,4-tetrahydroisoquinolin-5-yl)-6-fluoro-2-(trifluoromethyl)-2,3,4,9-tetrahydro-1H-carbazole-8-carboxamide]",IC50,"Ramos RA1 B cells; Table 3, calcium flux, goat anti-human IgM 2.5 μg/mL, read-out: Ramos IC50 value",16.3 nM
same,IC50,"Ramos RA1 B cells; Table 4, read-out: Example Ramos IC50",16 nM
"C=CC(=O)N1CCCOc2c(-c3c(F)cc(C(N)=O)c4[nH]c5cc(C(F)(F)F)ccc5c34)cccc21 (single isomer, unassigned) [Comparative Example 22, 4-(5-Acryloyl-2,3,4,5-tetrahydrobenzo[b][1,4]oxazepin-9-yl)-3-fluoro-7-(trifluoromethyl)-9H-carbazole-1-carboxamide]",IC50,Ramos RA1 B cells; [6],300 nM
same,IC50,human recombinant Btk; [7],9.5 nM
"C=CC(=O)N1CCc2c(cccc2-c2c(F)cc(C(N)=O)c3[nH]c4ccccc4c23)C1 (single isomer, unassigned) [Comparative Example 15, 4-(2-Acryloyl-1,2,3,4-tetrahydroisoquinolin-5-yl)-3-fluoro-9H-carbazole-1-carboxamide]",IC50,Ramos RA1 B cells; [6],72 nM
same,IC50,human recombinant Btk; [7],4 nM
"C=CC(=O)N1CCc2c(cccc2-c2c(F)cc(C(N)=O)c3[nH]c4ccncc4c23)C1 (racemic) [Example 31, 9-(2-acryloyl-1,2,3,4-tetrahydroisoquinolin-5-yl)-8-fluoro-5H-pyrido[4,3-b]indole-6-carboxamide]",IC50,Ramos RA1 B cells; [2],13 nM
same,IC50,human recombinant Btk; [3],0.3 nM
"C=CC(=O)N1CCc2c(cccc2-c2c(F)cc(C(N)=O)c3[nH]c4c(c23)CCC(C(F)(F)F)C4)C1 (single isomer, unassigned) [Comparative Example 20, 5-(2-Acryloyl-1,2,3,4-tetrahydroisoquinolin-5-yl)-6-fluoro-2-(trifluoromethyl)-2,3,4,9-tetrahydro-1H-carbazole-8-carboxamide]",IC50,Ramos RA1 B cells; [6],> 300 nM
"C=CC(=O)N1CCc2c(cccc2-c2c(F)cc(C(N)=O)c3[nH]c4ccc(Cl)cc4c23)C1 (racemic) [Example 29, 4-(2-acryloyl-1,2,3,4-tetrahydroisoquinolin-5-yl)-6-chloro-3-fluoro-9H-carbazole-1-carboxamide]",IC50,Ramos RA1 B cells; [2],107 nM
same,IC50,human recombinant Btk; [3],0.26 nM
"C=CC(=O)N1CCSc2c(-c3c(F)cc(C(N)=O)c4[nH]c5ccccc5c34)cccc21 (single isomer, unassigned) [Comparative Example 23, 4-(4-Acryloyl-3,4-dihydro-2H-benzo[b][1,4]thiazin-8-yl)-3-fluoro-9H-carbazole-1-carboxamide]",IC50,Ramos RA1 B cells; [6],150 nM
same,IC50,human recombinant Btk; [7],4.4 nM
"N#CN1CCc2c(cccc2-c2c(F)cc(C(N)=O)c3[nH]c4cc(CCO)ccc4c23)C1 (racemic) [Example 27, 4-(2-cyano-1,2,3,4-tetrahydroisoquinolin-5-yl)-3-fluoro-7-(2-hydroxyethyl)-9H-carbazole-1-carboxamide]",IC50,Ramos RA1 B cells; [2],142 nM
same,IC50,human recombinant Btk; [3],4.8 nM
"C=CC(=O)N1CCc2c(cccc2-c2c(F)cc(C(N)=O)c3[nH]c4ccccc4c23)C1 (single isomer, unassigned) [Example 5, 4-(2-Acryloyl-1,2,3,4-tetrahydroisoquinolin-5-yl)-3-fluoro-9H-carbazole-1-carboxamide]",Potency Difference Ramos: ratio of IC50 value for the Comparative Example to that for the corresponding Example,Ramos RA1 B cells,30
same,IC50,Ramos RA1 B cells; [1],2.4 nM
same,IC50,Ramos RA1 B cells; [2],2.4 nM
same,Potency Difference Btk: ratio of IC50 value for the Comparative Example to that for the corresponding Example,human recombinant Btk,60
same,IC50,human recombinant Btk; [3],0.067 nM
same,IC50,human recombinant Btk; [4],0.067 nM
"C=CC(=O)N1CCc2c(cccc2-c2c(F)cc(C(N)=O)c3[nH]c4c(c23)CC(F)(F)CC4)C1 (racemic) [Example 1, (RS)-5-(2-Acryloyl-1,2,3,4-tetrahydroisoquinolin-5-yl)-3,3,6-trifluoro-2,3,4,9-tetrahydro-1H-carbazole-8-carboxamide]",IC50,Ramos RA1 B cells; [2],25 nM
same,IC50,human recombinant Btk; [3],0.18 nM
"C=CC(=O)N1CCc2c(cccc2-c2c(F)cc(C(N)=O)c3[nH]c4cc(CCO)ccc4c23)C1 (racemic) [Example 25, 4-(2-acryloyl-1,2,3,4-tetrahydroisoquinolin-5-yl)-3-fluoro-7-(2-hydroxyethyl)-9H-carbazole-1-carboxamide]",IC50,Ramos RA1 B cells; [2],28 nM
same,IC50,human recombinant Btk; [3],1.5 nM
"C=CC(=O)N1CCc2c(cccc2-c2c(F)cc(C(N)=O)c3[nH]c4cc(C(=O)N(C)C)ccc4c23)C1 (racemic) [Example 28, 4-(2-acryloyl-1,2,3,4-tetrahydroisoquinolin-5-yl)-3-fluoro-N7,N7-dimethyl-9H-carbazole-1,7-dicarboxamide]",IC50,Ramos RA1 B cells; [2],17 nM
same,IC50,human recombinant Btk; [3],0.17 nM
"C=CC(=O)N1CCc2c(cccc2-c2c(F)cc(C(N)=O)c3[nH]c4c(c23)CCC(C(F)(F)F)C4)C1 (single isomer, unassigned) [Comparative Example 21, 5-(2-Acryloyl-1,2,3,4-tetrahydroisoquinolin-5-yl)-6-fluoro-2-(trifluoromethyl)-2,3,4,9-tetrahydro-1H-carbazole-8-carboxamide]",IC50,"Ramos RA1 B cells; Table 4, Comparative Example, read-out: Comparative Example Ramos IC50",> 300 nM
"C=CC(=O)N1CCc2c(cccc2-c2c(F)cc(C(N)=O)c3[nH]c4c(c23)CC[C@H](C(C)(C)O)C4)C1 (single isomer, unassigned) [Comparative Example 19]",IC50,Ramos RA1 B cells; [6],> 300 nM
C=CC(=O)N1CCc2c(cccc2-c2c(Cl)cc(C(N)=O)c3[nH]c4ccccc4c23)C1 [Example 30],IC50,Ramos RA1 B cells; [5],20 nM
"C=CC(=O)N1CCc2c(cccc2-c2c(Cl)cc(C(N)=O)c3[nH]c4c(c23)CNCC4)C1 (racemic) [Example 33, 9-(2-acryloyl-1,2,3,4-tetrahydroisoquinolin-5-yl)-8-chloro-2,3,4,5-tetrahydro-1H-pyrido[4,3-b]indole-6-carboxamide]",IC50,human recombinant Btk; [3],2.3 nM
